Data on 1 compound can be found in US7169812B2, “Process for producing injectable gabapentin compositions” (Medtronic, Inc., priority 2003, dated 2007).

For series [1] the following is noted: water; basic and acidic aqueous solutions; cited from earlier work.
Series [2] is described as follows: Tonicity of gabapentin dissolved in water. The format is physicochemical. To be noted: dissolved in water at 80 mg/ml. From the text: In an embodiment, the invention provides an injectable composition comprising gabapentin, where the composition is substantially isotonic with a physiological fluid of a subject. For example, the injectable solution may be isotonic with a subject's blood or cerebrospinal fluid. Cerebrospinal fluid typically has a tonicity of about 305 mOsm. Accordingly, an embodiment of the invention provides an injectable gabapentin composition having a tonicity of about 290 mOsm to about 320 mOsm. If an injectable composition comprising gabapentin has a tonicity lower than about 290 mOsm to about 320 mOsm, the tonicity may be enhanced by adding a tonicity enhancing agent, such as sodium chloride. As used herein, “tonicity enhancing agent” means a compound or composition that increases tonicity of a composition. However, such tonicities of between about 290 mOsm to about 320 mOsm are not always achievable with gabapentin compositions. For example, gabapentin dissolved in water at a concentration of 80 mg/ml has a tonicity of about 500 mOsm. When the concentration of gabaentin in an injectable composition renders the composition hypertonic relative to a subject's physiological fluid, it is preferred that little or no amount of a tonicity enhancing agent be added to the composition. […]

Another series has as its system mouse. To be noted: cited from earlier work.
For the next series, the system named is Crl:CD(SD)IGS BR rats. Description: Intrathecal infusion toxicity study of heat-sterilized gabapentin solutions in rats (Day 1 to Day 29). Conditions: rat. The format is in vivo. The protocol:
Rats were infused intrathecally with solutions containing varying concentrations of gabapentin.
Injectable solutions containing 80 mg/ml gabapentin were prepared and sterilized by heating to F0=24 as described in Example 1. The heat-sterilized 80 mg/ml gabapentin solutions were diluted in sterile water for injection, USP (Abbott Laboratories; North Chicago, Ill.) to prepare solutions at gabapentin concentrations of 1.67, 4.17, and 37.5 mg/ml as shown in Table 2.
Osmotic minipumps(ALZET® Model 2ML4) were filled with approximately 2 ml of sterile water for Groups 1 and 6 or approximately 2 ml of the appropriate test article preparation for Groups 2 through 5. All dose preparations were filtered using a 0.22 μm filter prior to filling the osmotic minipumps.
The animals were obtained from Charles River Laboratories; Raleigh, N.C.. The animals were cannulated by the supplier in the intrathecal space overlying the lumbar vertebrae. The cannulae consisted of 1.3 cm PE-10 tubing attached to a 7 cm piece of polyurethane tubing (0.025 ID×0.040 OD) with a total dead volume of approximately 23.5 μl. On Day 1 (staggered based on sex), the animals were anesthetized and one prefilled osmotic pump/animal was aseptically inserted subcutaneously on the animal's dorsum. The cannula was filled with sterile water or test article preparation, as appropriate, and the pumps were connected to the intrathecal cannulae. Beginning on Day 1, animals were dosed 24 hours/day at a dose volume of approximately 60.96 μl/day via intrathecal infusion using the osmotic minipump through necropsy on Day 29. At initiation of dosing, the animals were 8 to 9 weeks old, and their body weights ranged from 264 g to 340 g for the males and 191 g to 264 g for the females.
Assessment of toxicity was based on mortality, clinical observations, ophthalmic examinations, body weights, food consumption, clinical pathology, and anatomic pathology. Ophthalmic examinations were performed prior to initiation of treatment and during week 4. An indirect ophthalmoscopy examination was done to include, but was not limited to, a cursory examination of the adnexa and anterior structures of the globe (e.g.,cornea, anterior chamber, lens) and a detailed examination of the ocular fundus. Body weights were taken prior to treatment, on Day 1, and weekly thereafter. Food consumption was measured weekly. At scheduled sacrifices, samples were taken for hematology, coagulation, and clinical chemistry. When possible, blood was collected from animals sacrificed at an unscheduled interval. Tissues were taken from each animal in groups 1 and 4 and each animal sacrificed at an unscheduled interval. Spinal cords were harvested from each animal in Groups 2, 3, and 5. The tissues and spinal cords were processed and examined microscopically. Macroscopic lesions were processed and examined microscopically from animals in Groups 2, 3, and 5. Sections of spinal cord from each animal in Groups 1 and 4 were embedded in paraffin, sectioned, and stained with luxol fast blue, and examined microscopically. Immunohistochemistry of spinal cord sections in paraffin from each animal in Groups 1 and 4 were sectioned, stained with anti-glial acidic fibrillary protein (Dako; Carpinteria, Calif.); rabbit IgG from Vector Laboratories; Burlingame, Calif. was used as a negative control), and examined. […]

Entries after “also recorded” stand apart in the source; their conditions may differ.

In the case of `NCC1(CC(=O)O)CCCCC1` [gabapentin, 1-(aminomethyl)cyclohexane acetic acid], the Solubility entry in series [1] is given as “freely soluble”. In addition, the Tonicity entry in series [2] is recorded as “about 500 mOsm”. Also, the “toxicity (LD50, mouse)” value in the series with mouse was “more than 8000 mg/kg”. Also, the “Overall toxicity / tolerability” value with Crl:CD(SD)IGS BR rats (continuous intrathecal infusion, 0.10, 0.25, 2.25 and 4.8 mg/day, solutions heated to F0=24, acetic acid) was “no toxic effects attributable to the infused solutions were observed; also recorded: well tolerated and non-toxic”. Also, in the series on Crl:CD(SD)IGS BR rats (control vs high-dose group (4.8 mg/day)), the “Glial fibrillary acidic protein immunostaining of spinal cord sections” value is “no significant variation”. Also, in the series on Crl:CD(SD)IGS BR rats (intrathecal), the “Organ weight differences, macroscopic observations, microscopic observations” value is recorded as “no test article-related organ weight differences, macroscopic observations, or microscopic observations”. For the same compound, in the series with Crl:CD(SD)IGS BR rats (intrathecal, 0.10-4.8 mg/day), the “Effects on clinical observations, body weights, body weight changes, food consumption, ophthalmic observations, clinical or anatomic pathology observations” value was “No clear effects were observed”. Besides, the “Effect on clinical pathology test results” value in the series with Crl:CD(SD)IGS BR rats (intrathecal, terminally sterilized by heat) is “no obvious or adverse effect”.
